In one experiment the test system is MCF-7 cells. Put plainly: MTT cytotoxicity assay on MCF-7 cells. The experiment is classed as cell-based. To be noted: Homo sapiens, MCF7; for viability at 1.25 µM: MCF-7, 1.25 µM; for viability at 1.25 µM / viability at 2.5 µM / viability at 5 µM / viability at 10 µM / viability at 20 µM / viability at 40 µM / viability at 80 µM / viability at 160 µM: Table S2; for viability at 2.5 µM: MCF-7, 2.5 µM; for viability at 5 µM: MCF-7, 5 µM; for viability at 10 µM: MCF-7, 10 µM; for viability at 20 µM: MCF-7, 20 µM; for viability at 40 µM: MCF-7, 40 µM; for viability at 80 µM: MCF-7, 80 µM; for viability at 160 µM: MCF-7, 160 µM; for IC50: MTT, 24 h treatment, mean of three experiments ± SEM, read-out: IC50 (µM) MCF-7. The method, then:
Cytotoxic activity of the synthesized compounds was evaluated against HepG-2 and MCF-7 cancer cell lines using the MTT assay. The tested cell lines were obtained from the American Type Culture Collection (ATCC, […], USA) through the Tissue Culture Unit, The Egyptian Organization for Biological Products and Vaccines (Vacsera, Giza, Egypt). Indirubin, chemicals, and solvents were purchased from Sigma-Aldrich (St. Louis, MO, USA). The cells were grown on RPMI-1640 medium supplemented with 10% inactivated fetal calf serum and 50 µg/mL gentamycin. The cells were maintained at 37 °C in a humidified atmosphere with 5% CO2 and were sub-cultured two to three times per week. For antitumor assays, the tumor cell lines were suspended in the medium at concentration 5 × 10^4 cell/well in Corning® 96-well tissue culture plates (Corning, Corning, NY, USA), then incubated for 24 h. The tested molecules were then added to 96-well plates (six replicates) to achieve six concentrations for each compound. Six vehicle controls with media or 0.5% DMSO were run for each 96-well plate as a control. After incubating for 24 h, the numbers of viable cells were determined by the MTT test. Briefly, the media was removed from the 96 well plate and replaced with 100 µL of fresh culture RPMI 1640 medium without phenol red then 10 µL of the 12 mM MTT stock solution (5 mg of MTT in 1 mL of PBS) to each well including the untreated controls. The 96-well plates were then incubated at 37 °C and 5% CO2 for 4 h. An 85 µL aliquot of the media was removed from the wells, and 50 µL of DMSO was added to each well, mixed thoroughly with the pipette, and incubated at 37 °C for 10 min. Then, the optical density was measured at 590 nm with the microplate reader (SunRise, TECAN, Inc., Morrisville, NC, USA) to determine the number of viable cells, and the percentage of viability was calculated as […], where ODt is the mean optical density of wells treated with the tested sample and ODc is the mean optical density of untreated cells. The relation between surviving cells and drug concentration was plotted to obtain the survival curve of each tumor cell line after treatment with the specified compound. […] Each concentration was repeated four times.

The next experiment has as its system Fas-L. The experiment is described as follows: ELISA of Fas-L in treated HepG-2 cells. The experiment is classed as cell-based, human. Particulars: for increase of Fas-L expression compared to untreated control: HepG-2, compound at its IC50, 24 h; for Concentration of Fas L: HepG-2, compound at its IC50, ± S.E.M, control 15.33±1.71. How it is done: (§1) HepG2 cells were cultured in RPMI 10% + 5%FBS penicillin/streptomycin and were incubated at a humidity 5% CO2 and maintained at 37 °C. […] HepG2 cells were cultured as a monolayer in T-25 flasks and were seeded to attain 30% confluency prior to treatment. The main 100 mM stock dissolved in DMSO was diluted with the cell culture medium in order to reach the previously determined IC50 concentration of each of the three preparations. After that, HepG2 cells were collected via trypsinization and centrifuged at 10,000 rpm. The pellet was then rinsed with PBS and lysed in RIPA lysis buffer at 4 °C for 45 min, then centrifuged at 14,000 rpm for 20 min to remove the cellular debris. Lysates were then collected and stored at […] for protein determination. The levels of p53, p21, Fas-L, Bax, Bcl-2, and caspase 3/7 were assessed using the human P53 ELISA kit (Catalog No. ABIN6962151), P21 ELISA kit (Catalog No. ABIN6966175), Human Apoptosis Ligand (FAS-L), Bax ELISA kit, Human Factor-Related. Bcl-2 ELISA kit ELISA kit, and caspase3/7 ELISA kit (Elabscience Biotechnology Co., Wuhan, Hubei, China). The procedure of the used kits was done according to the manufacturer’s instructions. Briefly, equal amounts of cell lysates were loaded and then probed with specific antibodies. The samples were measured at 450 nm in ROBONEK P2000 ELISA reader. The analysis was confirmed with three different sets of extracts. All experiments were done in triplicate (Tables S6–S9).

A further experiment relates to caspase 3/7. The experiment is described as follows: ELISA of caspase 3/7 in treated HepG-2 cells. The class given is cell-based, human. Particulars: for increase of caspase 3/7 levels compared with untreated cells: HepG-2, compound at its IC50, 24 h; for Concentration of caspases 3/7: HepG-2, compound at its IC50, ± S.E.M, control 11.90±1.71. How it is done:
as §1
For orientation: In an ELISA, binding on a coated surface is turned into a signal by an enzyme label.

In a further experiment the test system is p53. The experiment is described as follows: ELISA of p53 in treated HepG-2 cells. The class given is cell-based, human. Particulars: for upregulation of p53 expression compared to untreated cells: HepG-2, compound at its IC50, 24 h; for Concentration of p53: HepG-2, compound at its IC50, ± S.E.M, control 48.29±3.87. How it is done:
as §1

For orientation: viability means a read-out of living cells in per cent, often relative to untreated cells. Low values mean a greater loss of cells, high ones better survival. For orientation: IC50 means the point on the concentration scale where inhibition reaches its midpoint. In the experiment on MCF-7 cells, `O=C1Nc2ccc(Cl)cc2C1=Nc1ccc2nc[nH]c(=O)c2c1` [Compound 9, 6-(5-Chloro-2-oxo-1,2-dihydro-indol-3-ylideneamino)-3H-quinazolin-4-one] registered a viability at 1.25 µM of 90.5 ± 7.8%, a viability at 2.5 µM of 72.8 ± 6.3%, a viability at 5 µM of 64.1 ± 4.5% and a viability at 10 µM of 49 ± 2%. In the experiment on MCF-7 cells, this molecule yielded a viability at 20 µM of 34.4 ± 0.2%, a viability at 40 µM of 18.2 ± 1%, a viability at 80 µM of 14.8 ± 1.3% and a viability at 160 µM of 8.7 ± 1.2%. In addition, the IC50 in the experiment on MCF-7 cells is 7.54 ± 0.71 µM. In the experiment on Fas-L, the “increase of Fas-L expression compared to untreated control” value was determined as 5.7 fold and the “Concentration of Fas L” value came to 86.11 ± 8.05 pg/mL. Moreover, in the experiment with caspase 3/7, the “increase of caspase 3/7 levels compared with untreated cells” value came out at 5.3 fold and the “Concentration of caspases 3/7” value stood at 62.13 ± 5.27 pg/mL. Moreover, in the experiment with p53, the “upregulation of p53 expression compared to untreated cells” value is on record as 6.7 fold and the “Concentration of p53” value was found to be 325.11 ± 29.55 pg/mL.
In the case of `O=C1Nc2ccc(Cl)cc2C1=Nc1ccc(-c2nc3ccccc3c(=O)[nH]2)cc1` [Compound 20, 2-[4-(5-Chloro-2-oxo-1,2-dihydro-indol-3-ylideneamino)-phenyl]-3H-quinazolin-4-one], in the experiment on MCF-7 cells, the viability at 1.25 µM came out at 92.4 ± 5.7%, the viability at 2.5 µM was 84.3 ± 4.8%, the viability at 5 µM was determined as 76.7 ± 4.2% and the viability at 10 µM stood at 67.9 ± 3.4%. In the experiment with MCF-7 cells, this molecule showed a viability at 20 µM of 47.1 ± 3%, a viability at 40 µM of 24.6 ± 1.9%, a viability at 80 µM of 7.77 ± 0.9% and a viability at 160 µM of 4.1 ± 0.1%. Further, in the experiment on MCF-7 cells, the IC50 is 5.28 ± 0.22 µM. Further, in the experiment on Fas-L, the “increase of Fas-L expression compared to untreated control” value is 4.1 fold and the “Concentration of Fas L” value worked out at 62.06 ± 4.62 pg/mL. Moreover, in the experiment on caspase 3/7, the “increase of caspase 3/7 levels compared with untreated cells” value was 3.2 fold and the “Concentration of caspases 3/7” value worked out at 37.32 ± 4.82 pg/mL. Moreover, in the experiment on p53, the “upregulation of p53 expression compared to untreated cells” value was found to be 2.65 fold and the “Concentration of p53” value stood at 127.43 ± 9.43 pg/mL.

The values above are taken from publication PMC11901902, “Design, Synthesis, and Cytotoxicity Evaluation of Novel Indolin-2-One Based Molecules on Hepatocellular Carcinoma HepG2 Cells as Protein Kinase Inhibitors” (Molecules, 2025).
